Where a name gives a salt, the structure may show the parent alone.
Each compound was assayed against recombinant human cGAS (Homo sapiens (Human), UniProt Q8N884) (assay: In vitro inhibition assay of cGAS activity (cGAMP production, RapidFire mass spectrometry)). Details: 10 nM recombinant human cGAS, 60 nM 75-bp dsDNA, ATP, GTP, room temperature 3 hours, read-out: IC50 (μM), In vitro inhibition assay for Compounds 1-94.
Assay type: biochemical
Procedure: Expression and Purification of Recombinant cGAS Protein: Insert cDNA encoding full-length of human cGAS into a modified bacterial expression vector containing an in-frame His6-tag. Induce the E. coli strain BL21(DE3) harboring the plasmid with 1 mM IPTG (Isopropyl β-D-1-thiogalactopyranoside) at 18° C. overnight. Purify the His6-tagged cGAS protein over HISpur Ni-NTA resin in the presence of benzonase and RNase followed by Superdex 200 size exclusion chromatography with storage buffer (50 mM Tris-HCl pH 7.5, 300 mM NaCl, 1 mM DTT, 10% glycerol).
In vitro inhibition assay of cGAS activity: Add a 5 μL mixture containing 10 mM Tris-Cl pH 7.5, 50 mM NaCl, 5 mM MgCl2, 1 mM DTT, 0.01% Triton X-100, 60 nM 75-bp dsDNA, […], 50 μM GTP, 10 nM of recombinant human cGAS, and serial dilutions of a test compound in DMSO to a 384-well plate and incubate at room temperature for 3 hours. Quench the reaction by the addition of 100 μL of stop solution containing 0.1% formic acid and 0.1 μM internal standard (3′3′-difluoro cGAMP). Measure the amount of cGAMP produced by RapidFire 365 mass spectrometry and evaluate inhibitory effect of a compound by plotting percent specific inhibition of cGAMP production against log concentration of the test compound. Calculate IC50 values using a 4-parameter non-linear logistic equation (y=(S0+((SInf−S0)/(1+((qAC50/x)^nHill))))).

Chain of recombinant human cGAS (Q8N884 whole entry): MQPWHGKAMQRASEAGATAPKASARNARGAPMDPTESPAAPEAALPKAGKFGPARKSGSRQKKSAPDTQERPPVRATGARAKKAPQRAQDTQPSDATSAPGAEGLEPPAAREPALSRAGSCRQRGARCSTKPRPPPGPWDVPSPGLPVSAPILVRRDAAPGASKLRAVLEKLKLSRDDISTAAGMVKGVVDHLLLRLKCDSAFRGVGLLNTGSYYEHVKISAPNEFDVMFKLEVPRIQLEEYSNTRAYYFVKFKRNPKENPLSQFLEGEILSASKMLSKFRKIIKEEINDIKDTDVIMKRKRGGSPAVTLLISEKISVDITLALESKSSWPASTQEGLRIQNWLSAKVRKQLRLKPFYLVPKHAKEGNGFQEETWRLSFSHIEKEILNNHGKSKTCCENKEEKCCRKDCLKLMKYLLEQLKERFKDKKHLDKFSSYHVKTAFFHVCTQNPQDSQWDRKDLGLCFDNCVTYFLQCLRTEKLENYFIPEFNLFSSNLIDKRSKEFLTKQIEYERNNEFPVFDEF

SMILES | IC50
OCCNc1cc(Cl)c(Cl)c2[nH]cc(-c3cn[nH]c3)c12 [Example 62, 2-[[6,7-Dichloro-3-(1H-pyrazol-4-yl)-1H-indol-4-yl]amino]ethanol] | 0.0151 µM
O=C1CCCN1C1CCc2c(-c3cn[nH]c3)c3ccc(Cl)c(Cl)c3n2C1 (stereo not shown) [Example 74, 1-[3,4-Dichloro-10-(1H-pyrazol-4-yl)-6,7,8,9-tetrahydropyrido[1,2-a]indol-7-yl]pyrrolidin-2-one] | 0.0847 µM
O=C1Cn2c(c(-c3cn[nH]c3)c3ccc(Cl)c(Cl)c32)CCN1 [Example 7, 7,8-Dichloro-11-(1H-pyrazol-4-yl)-1,2,3,5-tetrahydro-[1,4]diazepino[1,7-a]indol-4-one] | 0.0436 µM
N#CCOc1cc(Cl)c(Cl)c2c1c(-c1cn[nH]c1)c1n2CCN(C(=O)CO)C1 [Example 89, 2-((6,7-Dichloro-2-(2-hydroxyacetyl)-10-(1H-pyrazol-4-yl)-1,2,3,4-tetrahydropyrazino[1,2-a]indol-9-yl)oxy)acetonitrile] | 0.0112 µM
N#CCNc1cc(Cl)c(Cl)c2[nH]cc(-c3cn[nH]c3)c12 [Example 63, 2-[[6,7-Dichloro-3-(1H-pyrazol-4-yl)-1H-indol-4-yl]amino] acetonitrile] | 0.0273 µM
O=C(O)CCc1[nH]c2c(Cl)c(Cl)ccc2c1-c1cn[nH]c1 [Example 54, 3-(6,7-Dichloro-3-(1H-pyrazol-4-yl)-1H-indol-2-yl) propanoic acid] | 0.0381 µM
COCc1nnc(CN2CCn3c(c(-c4cn[nH]c4)c4ccc(Cl)c(Cl)c43)C2)o1 [Example 47, 2-[[6,7-dichloro-10-(1H-pyrazol-4-yl)-3,4-dihydro-1H-pyrazino[1,2-a]indol-2-yl]methyl]-5-(methoxymethyl)-1,3,4-oxadiazole formic acid salt] | 0.0333 µM
NC(=O)COc1cc(Cl)c(Cl)c2[nH]cc(-c3cn[nH]c3)c12 [Example 59, 2-[[6,7-Dichloro-3-(1H-pyrazol-4-yl)-1H-indol-4-yl]oxy]acetamide] | 0.0242 µM
Cc1nnc(NCc2[nH]c3c(Cl)c(Cl)ccc3c2-c2cn[nH]c2)s1 [Example 11, N-[[6,7-Dichloro-3-(1H-pyrazol-4-yl)-1H-indol-2-yl]methyl]-5-methyl-1,3,4-thiadiazol-2-amine] | 0.0423 µM
N#CCNc1cc(Cl)c(Cl)c2c1c(-c1cn[nH]c1)c1n2CCN(C(=O)CO)C1 [Example 92, 2-[[6,7-Dichloro-2-(2-hydroxyacetyl)-10-(1H-pyrazol-4-yl)-3,4-dihydro-1H-pyrazino[1,2-a]indol-9-yl]amino]acetonitrile] | 0.0287 µM
CC(=O)NC1CCn2c1c(-c1cn[nH]c1)c1ccc(Cl)c(Cl)c12 (single isomer, unassigned) [Example 26, N-(5,6-Dichloro-9-(1H-pyrazol-4-yl)-2,3-dihydro-1H-pyrrolo[1,2-a]indol-1-yl)acetamide] | 0.0229 µM
N#CCOc1cc(Cl)c(F)c2[nH]cc(-c3cn[nH]c3)c12 [Example 70, 2-[[6-Chloro-7-fluoro-3-(1H-pyrazol-4-yl)-1H-indol-4-yl]oxy] acetonitrile] | 0.0173 µM
Clc1ccc2c(-c3cn[nH]c3)c(CNc3ccon3)[nH]c2c1Cl [Example 6, N-[[6,7-Dichloro-3-(1H-pyrazol-4-yl)-1H-indol-2-yl]methyl]isoxazol-3-amine] | 0.0578 µM
O=C1CCc2c(-c3cn[nH]c3)c3ccc(Cl)c(Cl)c3n2C1 [Example 17, 3,4-Dichloro-10-(1H-pyrazol-4-yl)-8,9-dihydro-6H-pyrido[1,2-a]indol-7-one] | 0.0427 µM
CN1CCn2c(c(-c3cn[nH]c3)c3c(OCC#N)cc(Cl)c(Cl)c32)C1=O [Example 85, 2-((6,7-Dichloro-2-methyl-1-oxo-10-(1H-pyrazol-4-yl)-1,2,3,4-tetrahydropyrazino[1,2-a]indol-9-yl)oxy)acetonitrile] | 0.0257 µM
Clc1ccc2c(-c3cn[nH]c3)cn(-c3cn[nH]n3)c2c1Cl [Example 34, 6,7-Dichloro-3-(1H-pyrazol-4-yl)-1-(2H-triazol-4-yl)indole] | 0.0691 µM
O=C(Cc1[nH]c2c(Cl)c(Cl)ccc2c1-c1cn[nH]c1)NCc1cnccn1 [Example 28, 2-[6,7-Dichloro-3-(1H-pyrazol-4-yl)-1H-indol-2-yl]-N-(pyrazin-2-ylmethyl)acetamide] | 0.064 µM
Nc1nnc(-c2[nH]c3c(Cl)c(Cl)ccc3c2-c2cn[nH]c2)o1 [Example 94, 5-[6,7-Dichloro-3-(1H-pyrazol-4-yl)-1H-indol-2-yl]-1,3,4-oxadiazol-2-amine] | 0.0224 µM
Clc1c(Br)ccc2c(-c3cn[nH]c3)c[nH]c12 [Example 30, 6-bromo-7-chloro-3-(1H-pyrazol-4-yl)-1H-indole] | 0.034 µM
CC(=O)Nc1cc(Cl)c(Cl)c2[nH]cc(-c3cn[nH]c3)c12 [Example 66, N-[6,7-Dichloro-3-(1H-pyrazol-4-yl)-1H-indol-4-yl]acetamide] | 0.0349 µM
O=C1Cn2c(c(-c3cn[nH]c3)c3ccc(Cl)c(Cl)c32)CCN1CCO [Example 79, 7,8-Dichloro-3-(2-hydroxyethyl)-11-(1H-pyrazol-4-yl)-2,3-dihydro-1H-[1,4]diazepino[1,7-a]indol-4(5H)-one] | 0.0753 µM

The next lines start with the values.

IC50 | SMILES
0.0443 µM | O=C(CN1CCOC1=O)N1CCn2c(c(-c3cn[nH]c3)c3ccc(Cl)c(Cl)c32)C1 [Example 48]
0.0404 µM | CC(=O)N1CCn2c(c(-c3cn[nH]c3)c3ccc(Cl)c(Cl)c32)C1 [Example 38, 1-[6,7-Dichloro-10-(1H-pyrazol-4-yl)-3,4-dihydro-1H-pyrazino[1,2-a]indol-2-yl]ethanone]
0.0834 µM | O=C(O)C1CCCn2c(c(-c3cn[nH]c3)c3ccc(Cl)c(Cl)c32)C1 (single isomer, unassigned) [Example 24, 3,4-Dichloro-11-(1H-pyrazol-4-yl)-7,8,9,10-tetrahydro-6H-azepino[1,2-a]indole-9-carboxylic acid]
0.046 µM | CC(=O)N1CCOC(CC(=O)N2CCn3c(c(-c4cn[nH]c4)c4ccc(Cl)c(Cl)c43)C2)C1 (stereo not shown) [Example 82, 2-(4-Acetylmorpholin-2-yl)-1-[6,7-dichloro-10-(1H-pyrazol-4-yl)-3,4-dihydro-1H-pyrazino[1,2-a]indol-2-yl]ethanone]
0.0309 µM | O=C(O)C1CCn2c(c(-c3cn[nH]c3)c3ccc(Cl)c(Cl)c32)C1 (single isomer, unassigned) [Example 14, 3,4-Dichloro-10-(1H-pyrazol-4-yl)-6,7,8,9-tetrahydropyrido[1,2-a]indole-8-carboxylic acid]
0.0427 µM | O=C(C1COCCO1)N1CCn2c(c(-c3cn[nH]c3)c3ccc(Cl)c(Cl)c32)C1 (stereo not shown) [Example 51, [6,7-dichloro-10-(1H-pyrazol-4-yl)-3,4-dihydro-1H-pyrazino[1,2-a]indol-2-yl]-(1,4-dioxan-2-yl)methanone]

Same assay, conditions: 10 nM recombinant human cGAS, 60 nM 75-bp dsDNA, ATP, GTP, room temperature 3 hours, read-out: IC50 (μM), In vitro inhibition assay for Compounds 95-348

IC50 | SMILES
0.0626 µM | CN1C(=O)CCC1CC(=O)N1CCn2c(c(-c3cn[nH]c3)c3ccc(Cl)c(Cl)c32)C1 (stereo not shown) [Example 324, 5-(2-(6,7-Dichloro-10-(1H-pyrazol-4-yl)-3,4-dihydropyrazino[1,2-a]indol-2(1H)-yl)-2-oxoethyl)-1-methylpyrrolidin-2-one]
0.0562 µM | CC(=O)N1CC(C(=O)N2CCn3c(c(-c4cn[nH]c4)c4ccc(Cl)c(Cl)c43)C2)C1 [Example 321, 1-(3-(6,7-Dichloro-10-(1H-pyrazol-4-yl)-1,2,3,4-tetrahydropyrazino[1,2-a]indole-2-carbonyl)azetidin-1-yl)ethan-1-one]
0.0491 µM | O=C1NC(C(=O)N2CCn3c(c(-c4cn[nH]c4)c4ccc(Cl)c(Cl)c43)C2)CCO1 (stereo not shown) [Example 314, 4-(6,7-Dichloro-10-(1H-pyrazol-4-yl)-1,2,3,4-tetrahydropyrazino[1,2-a]indole-2-carbonyl)-1,3-oxazinan-2-one]
0.0613 µM | CN1C(=O)SC(CC(=O)N2CCn3c(c(-c4cn[nH]c4)c4ccc(Cl)c(Cl)c43)C2)C1=O (stereo not shown) [Example 323, 5-(2-(6,7-Dichloro-10-(1H-pyrazol-4-yl)-3,4-dihydropyrazino[1,2-a]indol-2(1H)-yl)-2-oxoethyl)-3-methylthiazolidine-2,4-dione]
0.0621 µM | COCCC(OC)C(=O)N1CCn2c(c(-c3cn[nH]c3)c3ccc(Cl)c(Cl)c32)C1 (stereo not shown) [Example 108, 1-[6,7-Dichloro-10-(1H-pyrazol-4-yl)-3,4-dihydro-1H-pyrazino[1,2-a]indol-2-yl]-2,4-dimethoxy-butan-1-one]
0.043 µM | CN1CC(=O)N(CC(=O)N2CCn3c(c(-c4cn[nH]c4)c4ccc(Cl)c(Cl)c43)C2)C1=O [Example 311, 3-(2-(6,7-Dichloro-10-(1H-pyrazol-4-yl)-3,4-dihydropyrazino[1,2-a]indol-2(1H)-yl)-2-oxoethyl)-1-methylimidazolidine-2,4-dione]
0.0712 µM | CCS(=O)(=O)NCc1[nH]c2c(Cl)c(Cl)ccc2c1-c1cn[nH]c1 [Example 105, N-((6,7-Dichloro-3-(1H-pyrazol-4-yl)-1H-indol-2-yl)methyl)ethanesulfonamide]

Reference: patent US20230391786A1, “cGAS INHIBITORS” (Eli Lilly and Company, priority 2022, published 2023)
